Literature values as cited in US20170216439A1, “OTIC FORMULATIONS FOR THE TREATMENT OF CERUMINOSIS” (Otonomy, Inc., priority 2014, published 2017).

Key:
[1] = for efficacy against tinnitus: in vivo
bacterial lesions = conditions: wild-type C57BL/6 and mutant flake mice

CCN(CC)CC(=O)Nc1c(C)cccc1C [Lidocaine]
reduces or eliminates the noise associated with tinnitus, share of sufferers ([1]; administered by IV): 60-80%

CNCCC=C1c2ccccc2CCc2ccccc21 [nortriptyline]
efficacy against tinnitus [1]: demonstrated efficacy

CCCCCCCC/C=C\CCCCCCCC(=O)O [oleic acid]
inhibitory against S. aureus (S. aureus): inhibitory
inhibitory against S. pyogenes (S. pyogenes): inhibitory

CCCCCC/C=C\CCCCCCCC(=O)O [palmitoleate]
size of bacterial lesions (bacterial lesions): decrease the size of bacterial lesions

CCCCCC/C=C\CCCCCCCC(=O)O [palmitoleic acid]
inhibitory against S. aureus (S. aureus): inhibitory
inhibitory against S. pyogenes (S. pyogenes): inhibitory

Fc1ccc([C@@H]2CCNC[C@H]2COc2ccc3c(c2)OCO3)cc1 [paroxetine]
efficacy against tinnitus [1]: demonstrated efficacy

CN[C@H]1CC[C@@H](c2ccc(Cl)c(Cl)c2)c2ccccc21 [sertraline]
efficacy against tinnitus [1]: demonstrated efficacy
